Test results reported in ChEMBL document CHEMBL1130514, “Design and synthesis of conformationally constrained arginal thrombin inhibitors” (Bioorg Med Chem Lett, 1997).
Where a SMILES comes first, the peptide text is derived from it. [ ]: non-standard residue; d: D form. The star is where a group is joined. dNMePhg = CN[C@@H](C(=O)O)c1ccccc1; PhAc = O=C(Cc1ccccc1)*

How the values were obtained:
Prothrombin = Prothrombin (Homo sapiens, UniProt P00734); assay: In vitro ability to inhibit the activity of human alpha Thrombin
Serine protease 1 = target: T1, Serine protease 1 (Bos taurus, UniProt P00760); assay: In vitro ability to inhibit the activity of Trypsin
T1 sequence (P00760 whole entry): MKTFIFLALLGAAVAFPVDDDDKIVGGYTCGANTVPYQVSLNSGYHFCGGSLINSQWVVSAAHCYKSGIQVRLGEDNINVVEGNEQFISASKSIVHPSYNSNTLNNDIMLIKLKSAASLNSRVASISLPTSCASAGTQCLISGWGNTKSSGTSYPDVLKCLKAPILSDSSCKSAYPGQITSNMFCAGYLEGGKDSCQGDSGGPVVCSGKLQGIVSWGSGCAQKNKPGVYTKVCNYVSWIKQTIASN

Plasminogen = Plasminogen (Homo sapiens, UniProt P00747); assay: In vitro ability to inhibit the activity of Plasmin
Sequence of Plasminogen (P00747 97-580 limits assumed): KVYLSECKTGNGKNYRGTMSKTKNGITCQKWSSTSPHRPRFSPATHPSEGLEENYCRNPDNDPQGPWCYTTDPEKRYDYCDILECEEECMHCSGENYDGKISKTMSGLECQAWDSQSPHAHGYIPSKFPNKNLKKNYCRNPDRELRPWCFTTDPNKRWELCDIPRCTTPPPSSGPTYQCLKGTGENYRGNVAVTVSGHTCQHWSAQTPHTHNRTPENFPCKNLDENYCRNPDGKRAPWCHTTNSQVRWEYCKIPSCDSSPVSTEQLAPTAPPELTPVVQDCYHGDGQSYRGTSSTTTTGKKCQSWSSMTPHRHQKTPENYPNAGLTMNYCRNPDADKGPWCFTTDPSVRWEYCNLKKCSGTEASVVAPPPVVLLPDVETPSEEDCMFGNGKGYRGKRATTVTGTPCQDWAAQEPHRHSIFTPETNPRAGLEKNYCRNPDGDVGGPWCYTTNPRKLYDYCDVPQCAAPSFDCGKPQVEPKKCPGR
Sequence of Plasminogen (P00747 581-810 limits assumed): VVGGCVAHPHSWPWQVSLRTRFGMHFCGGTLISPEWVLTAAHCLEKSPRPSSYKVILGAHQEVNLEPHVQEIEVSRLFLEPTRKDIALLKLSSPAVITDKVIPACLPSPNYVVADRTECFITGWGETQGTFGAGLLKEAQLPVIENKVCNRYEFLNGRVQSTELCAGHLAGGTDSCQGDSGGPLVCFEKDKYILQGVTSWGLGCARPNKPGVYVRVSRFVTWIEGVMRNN

| SMILES | IC50 (Prothrombin) | IC50 (Serine protease 1) | IC50 (Plasminogen) |
| --- | --- | --- | --- |
| CC(=O)N[C@@]1(Cc2ccccc2)CC[C@H]2CC[C@@H](C(=O)N[C@H]3CCCN(C(=N)N)C3O)N2C1=O (stereo partly specified) | 3.9 µM | – | – |
| N=C(N)N1CCC[C@H](NC(=O)[C@@H]2CC[C@@H]3CCC(Cc4ccccc4)C(=O)N32)C1O (stereo partly specified) | 4.6 µM | – | – |
| CC(=O)N[C@H]1CCC[C@H]2CC[C@@H](C(=O)N[C@H]3CCCN(C(=N)N)C3O)N2C1=O (stereo partly specified) | 4.3 µM | 24 µM | 74 µM |
| CN[C@H](Cc1ccccc1)C(=O)N1CCC[C@H]1C(=O)N[C@H](C=O)CCCN=C(N)N | – | 0.02 µM | 0.5 µM |
| CN[C@@H](C(=O)N1CCC[C@H]1C(=O)N[C@H](C=O)CCCNC(=N)N)c1ccccc1 (H-[dNMePhg]-Pro-Arg-aldehyde) | 0.026 µM | – | – |
| N=C(N)N1CCC[C@H](NC(=O)[C@@H]2CC[C@@H]3CCC[C@H](NS(=O)(=O)c4cccc5ccccc45)C(=O)N32)C1O (stereo partly specified) | 0.11 µM | – | 10 µM |
| CC1CNc2c(cccc2S(=O)(=O)N[C@H]2CCC[C@H]3CC[C@@H](C(=O)N[C@H]4CCCN(C(=N)N)C4O)N3C2=O)C1 (stereo partly specified) | 0.018 µM | 0.1 µM | 1.04 µM |
| N=C(N)N1CCC[C@H](NC(=O)[C@@H]2CC[C@@H]3CCC[C@H](NS(=O)(=O)Cc4ccccc4)C(=O)N32)C1O (stereo partly specified) | 0.11 µM | – | 10 µM |
| N=C(N)NCCC[C@@H](C=O)NC(=O)[C@@H]1CCCN1C(=O)Cc1ccccc1 (PhAc-Pro-Arg-aldehyde) | 1.6 µM | 7.2 µM | 41 µM |
| CC1CNc2c(cccc2S(=O)(=O)N[C@@H](CCCNC(=N)N)C(=O)N2CCC(C)C[C@@H]2C(=O)O)C1 (single isomer, unassigned) [ARGATROBAN] | – | 5 µM | 800 µM |
| N=C(N)N1CCC[C@H](NC(=O)[C@@H]2CC[C@@H]3CCCC(Cc4ccccc4)C(=O)N32)C1O (stereo partly specified) | 1.4 µM | – | – |
